In US10899736B2, “Processes and intermediates for making a JAK inhibitor” (Incyte Corporation, priority 2018, dated 2021):
pIC50: −log10 of the molar value.

Target: T1, human JAK1 (a.a. 837-1142) catalytic domain (Homo sapiens, UniProt P23458)
T1 construct: human JAK1 (a.a. 837-1142); His tag (N); made in house; host or cells: insect cells (baculovirus)
Assay: In vitro JAK kinase assay (HTRF, phosphorylation of biotinylated peptide)
Type: biochemical
Conditions: measured at 1 mM ATP
Procedure: The compound of Formula I was tested for inhibitory activity of JAK targets according to the following in vitro assay described in Park et al., Analytical Biochemistry 1999, 269, 94-104. The catalytic domains of human JAK1 (a.a. 837-1142) and JAK2 (a.a. 828-1132) with an N-terminal His tag were expressed using baculovirus in insect cells and purified. The catalytic activity of JAK1 and JAK2 was assayed by measuring the phosphorylation of a biotinylated peptide. The phosphorylated peptide was detected by homogenous time resolved fluorescence (HTRF). IC50s of compounds were measured for each kinase in the 40 micro L reactions that contain the enzyme, ATP and 500 nM peptide in 50 mM Tris (pH 7.8) buffer with 100 mM NaCl, 5 mM DTT, and 0.1 mg/mL (0.01%) BSA. For the 1 mM IC50 measurements, ATP concentration in the reactions was 1 mM. Reactions were carried out at room temperature for 1 hr and then stopped with 20 μL 45 mM EDTA, 300 nM SA-APC, 6 nM Eu-Py20 in assay buffer (Perkin Elmer, Boston, Mass.). Binding to the Europium labeled antibody took place for 40 minutes and HTRF signal was measured on a Fusion plate reader (Perkin Elmer, Boston, Mass.).

T1 sequence (P23458 849-1154): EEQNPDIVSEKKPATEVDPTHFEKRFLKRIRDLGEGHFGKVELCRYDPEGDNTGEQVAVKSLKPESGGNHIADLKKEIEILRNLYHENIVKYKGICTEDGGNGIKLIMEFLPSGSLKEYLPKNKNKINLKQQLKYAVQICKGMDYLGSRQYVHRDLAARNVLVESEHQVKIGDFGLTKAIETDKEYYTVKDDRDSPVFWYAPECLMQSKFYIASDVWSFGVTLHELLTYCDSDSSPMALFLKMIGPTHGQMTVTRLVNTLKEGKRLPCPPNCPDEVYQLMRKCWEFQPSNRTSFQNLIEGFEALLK

- pIC50: > 8.30
SMILES: N#CCC1(n2cc(-c3ncnc4[nH]ccc34)cn2)CN(C2CCN(C(=O)c3ccnc(C(F)(F)F)c3F)CC2)C1 [Formula I, {1-{1-[3-fluoro-2-(trifluoromethyl)isonicotinoyl]piperidin-4-yl}-3-[4-(7H-pyrrolo[2,3-d]pyrimidin-4-yl)-1H-pyrazol-1-yl]azetidin-3-yl}acetonitrile]
